The structures appear in SMILES notation. Peptide text beside a SMILES is read from it. * marks the point of attachment. Palmitoyl = CCCCCCCCCCCCCCCC(=O)*

The subject of data set [1] is cellular peroxide levels in human epidermal keratinocytes. The data set can be described thus: Cellular peroxide levels in keratinocytes, DCFH-DA dye and flow cytometry, with and without exogenous H2O2. In kind it is cell-based. The method, then:
Hydrogen peroxide can induce damages to skin cells. The dermal protective efficacy of Pal-hexapeptide was assessed by measuring basal peroxide levels in the presence and absence of the compound.
Basal peroxide production, generated by normal cellular metabolism, induce gradual development of low levels of peroxide-specific cellular fluorescence.
Extracellular peroxides (e.g., H2O2 added exogenously) can permeate the cell membrane and cause a rapid and dramatic increase in the peroxide-specific fluorescence of the cell. Cellular peroxides levels can be measured by flow cytometry using the peroxide-specific dye, 2′,7′-dichlorofluorescein diacetate (DCFH-DA). DCFH-DA is initially non-fluorescent and is rapidly concentrated within living cells by an enzyme-dependent process. […] The results of the assay indicates if a test compound functions as an oxidant or an anti-oxidant in a cellular system. If the test article functions as an anti-oxidant, this assay can also be used to determine if the test compound can permeate the cell membrane to quench intracellular peroxide or if it can only affect extracellular peroxide levels (Bass et al., 1983, J. Immunol. 130:1910-1917; Bombick et al., 1992, Toxicol. Meth. 2:255-264).
Human primary keratinocytes, generally on the third passage, were seeded in T75 flasks and cultured until 70-80% confluent. A cell suspension was created and these cells were loaded with the dye DCFH-DA. The pre-incubated cells were exposed to dilutions of the Pal-hexapeptide having the amino acid sequence SEQ ID NO: 2 in two triplicate sets per dilution. One triplicate set was incubated with H2O2 (exogenous source of peroxide), and both sets were stained with Propidium Iodide. Cell viability and peroxide production were determined by fluorescence readings on a FACScan flow cytometer. Peroxide value increases or decreases of 25% or more compared to vehicle control values are considered biologically significant.

The test system of data set [2] is UVA-bleaching of beta-carotene. The data set can be described thus: UVA bleaching of beta-carotene on forearm skin, Color Index by CHROMAMETER
In kind it is in vivo, human. To be noted: 0.1% gel on human forearm, UVA. The method, then: In-vivo method for assessing the protective effects of cosmetic products. Bleaching of carotenoids have been used to evaluate the auto-oxidation activity of natural products. The relative efficacy of scavengers of lipid peroxyl free radicals after application to the skin was assessed by measuring the UVA-bleaching of beta-carotene as a function of the energy exposure.
A CHROMAMETER colorimeter (TM, Minolta Model CR-300) was used to measure changes in color by expressing the color of measured surfaces numerically in L*a*b* color space which is a system recommended by the CIE (Commission Internationale de I'Eclairage) for skin color assessment. In this color space, L* is the luminance and gives the relative brightness from total black (L*=0) to total white (L*=100). The a* value represents the balance between the reds (positive values) and the greens (negative values). The b* value represents the balance between the yellows (positive values) and the blues (negative values). The b* value most closely describes the intensity of the orange color of the β-carotene stain and is in direct correlation with the Color Index, I. The CHROMAMETER provides a means by which oxidative damage caused by free radicals and, conversely, the prevention of oxidation by free radical scavengers, can be measured. Free radical oxidation induced by UVA radiation elicits a bleaching and reduction of color of beta-carotene stain. The bleaching and prevention of bleaching by a test material can be measured by the CHROMAMETER. Bleaching is reported as the change in b* versus UVA Irradiation Energy. It can also be expressed in terms of a Color Index, I, defined as: I=[(bn*−bi*)/(b0*−bi*)]×100 where, bn* is the value of b* measured after n J/cm^2 of irradiation of the area treated with the cosmetic formulation and painted with the β-carotene; b0* is the value of b* after application of the beta-carotene but before irradiation; and bi* is the value of b* before application of the beta-carotene. This index compensates for any effects of skin color on bn* and b0*. Bleaching will cause bn* value and I value (as a percentage) to decrease. Prevention of bleaching will result in higher I values or less reduction in I value when exposed to radiation.
The designated forearm of impaneled subjects was cleansed with a 70% isopropyl alcohol prep pad (Medium, Dynarex) and allowed to dry. Test sites were selected on the volar surface of the designated forearm of each subject, with each test site defined by the open, central area of a self-adhesive ring (Professional ProFoot™ Products, P.P.R. Co, Inc.). The adhesive side of the rings were placed directly on the skin. The rings were used to retain the test material and beta-carotene solution as well as to function as a guide for taking measurements with the CHROMAMETER.
Gel formulations (0.1% Pal-hexapeptide) and (0.1% hexapeptide) were applied to the forearm according to a randomized schedule. Additional sites were treated with a beta-carotene control, a positive control (internal control) and an untreated control. Treatment of the test sites were randomized for each subject.
Prior to application of the test materials or beta-carotene, the initial b* parameter was measured using the CHROMAMETER and recorded for all duplicate test sites of the forearm (Baseline). Approximately 2 mg/cm^2 of each material was applied to the designated test site and spread manually with a finger cot to ensure even distribution. Sites designated as untreated, with or without beta-carotene, remained untreated at this time. The test materials and internal control were allowed to incubate with the skin surface for a period of fifteen (15) minutes. After this incubation period, b* measurements were recorded for all sites (Product Baseline).
A solution of beta-carotene in a mixture of capric and caprylic triglycerides was applied to all treated sites. The b* parameter is again measured and recorded (beta-carotene Baseline). […]

Consider `CCCCCCCCCCCCCCCC(=O)N[C@@H](Cc1ccccc1)C(=O)N[C@@H](CO)C(=O)N[C@@H](CCCNC(=N)N)C(=O)N[C@@H](Cc1ccc(O)cc1)C(=O)N[C@@H](C)C(=O)N[C@@H](CCCNC(=N)N)C(=O)O` [Pal 6 mer, Pal-FSRYAR] (Palmitoyl-FSRYAR-OH; C-terminus assumed), for which, in data set [1] (0.79 mM, endogenous peroxide), the “peroxide level, % of the control, endogenous peroxide assay without exogenous H2O2” value is 40.21%. In data set [1] (0.79 mM, exogenous H2O2 added), the “peroxide level, % of the control, assay with exogenous added peroxide” value is given as 9.88%. Also, the “Cell viability, expressed as % of non-viable, treated versus not treated cells” value in data set [1] (keratinocytes, Propidium Iodide staining) is on record as “about the same”. Moreover, in data set [2], the “preventing the bleaching of beta-carotene compared to the beta-carotene control” value is recorded as “effective as a free radical scavenger”.

These data come from patent US8334253B2, “Cosmetic and dermatological formulations of MNTF peptides” (Dermacare Neuroscience Institute, priority 2008, dated 2012).
